In one experiment the test system is C57b16 mouse. Put plainly: C57b16 mouse OGTT. To be noted: dosed 30 min prior to glucose PO 3 g/kg. It is filed as in vivo. Here is the method:
(§1) Male, C57bl/6J Mice were ordered in at 8 weeks of age from Jackson Labs. Individual mice weighed anywhere in the range of 25-30 grams on study day. The mice were fasted, with removal of food occurring at 7 am on the morning of the study. Animals were moved into the room at 10:00 am, to give them time to acclimate. Glucose (insulin syringes) was drawn up either the night before or the morning of the study. Glucose was dosed (IP) at 1.5 g/kg at 7.5 ml/kg (20% glucose straight TEKNOVA, 250 ml sterile bottle w/ catalogue number G0525). Test compounds were kept spinning and were only drawn into the syringes prior to study commencement. Animals were bled via tail snip to determine basal glucose levels prior to dosing of treatments. An Ascensia BREEZE Blood Glucose Monitoring System by Bayer (using unique 10-test disks) was used for determining glucose levels. The bleeds started at approximately 12:45 pm and dosing started, at 1-minute intervals, immediately after. All groups were dosed 30 minutes prior to glucose administration at a dose volume of 10 ml/kg (the dose volume was calculated separately for each individual animal). Thirty minutes after the first dose animals were bled again for a second baseline, or T=0, and immediately dosed with glucose via an i.p. injection. The exact dose volume for glucose was also calculated separately for each individual animal. Glucose measurements were taken at −30 min prior to compound dose, at t=0 (immediately prior to glucose dose), and at 15, 30, 45, 60, 90 min post glucose dose.
(§2) Glucose values were entered into an Excel sheet and graphed in GraphPad Prism. The following were calculated from Prism: Change from −30 to 0 BSLN Glucose, Raw Glucose AUC −30 to 90 min, Delta Glucose AUC −30 to 90 min, Raw Glucose AUC 0 to 90 min, Delta Glucose AUC 0 to 90 min.
The assay design is the same as that described above for the C57b16 mouse IPGTT. The difference is that glucose was dosed PO at 3 g/kg, 7.5 ml/kg of 40% glucose.

Another experiment has as its system C57bl/6J Mice. Put plainly: GPR120 C57bl6 mouse IPGTT. In kind it is in vivo. To be noted: dosed 30 min prior to glucose IP 1.5 g/kg. Here is the method: as §1, §2
Experiment [1] addresses T1, short form of the GPR120 receptor (Homo sapiens, UniProt Q5NUL3).
T1 construct: host or cells: PathHunter CHO-K1 GPR120S β-Arrestin Cell Line
T1 sequence (Q5NUL3 1-361): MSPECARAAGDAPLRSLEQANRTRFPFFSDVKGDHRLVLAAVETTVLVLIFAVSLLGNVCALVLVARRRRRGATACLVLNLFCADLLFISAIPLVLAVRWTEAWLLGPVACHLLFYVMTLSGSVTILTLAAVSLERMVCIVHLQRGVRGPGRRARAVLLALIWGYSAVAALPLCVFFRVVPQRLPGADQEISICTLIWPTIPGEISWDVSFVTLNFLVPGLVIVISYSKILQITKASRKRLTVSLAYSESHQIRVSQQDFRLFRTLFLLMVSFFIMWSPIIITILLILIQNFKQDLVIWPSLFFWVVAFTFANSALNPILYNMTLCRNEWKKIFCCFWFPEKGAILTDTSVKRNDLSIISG
Description: Human GPR120 DiscoveRx PathHunter beta-arrestin assay, Procedure β-arrestin B. In kind it is cell-based. The settings on record: PathHunter CHO-K1 GPR120S β-Arrestin cells, 5000 cells/well; read-out: hGPR120 β-arrestin B EC50. The text has this:
The binding of an agonist (medium/long chain fatty acids or small molecule agonists) to the G-protein-coupled receptor GPR120 activates phospholipase C, leading to release of intracellular Ca^+2 through the generation of inositol 1,4,5-trisphosphate (InsP3 or IP3). GPR120 activation can also trigger intracellular signaling via recruitment of Beta-Arrestin. In the present method, agonist-induced activation of the human GPR120 receptor is monitored through the use of PathHunter CHO-K1 GPR120 Beta-Arrestin Cell Line engineered by DiscoveRx, as detailed below. The cell lines are designed to co-express both the ProLink/Enzyme Donor (PK)-tagged GPCR and the Enzyme […] (EA)-tagged Beta-Arrestin fusion proteins. Upon GPR120 receptor stimulation/activation, the EA-tagged Beta-Arrestin portion is translocated to the tagged receptor, where the two enzyme fragments are brought within close proximity. Under these conditions, these fragments can interact and form an active Beta-gal enzyme complex through Enzyme Fragment Complementation (EFC). This active Beta-gal complex can enzymatically hydrolyse the substrate to produce a detectable light signal; therefore, activation as a function of agonist concentration can be expressed as an EC50 value to determine relative compound activities. This in vitro assay therefore serves to assess compound agonist activity of the GPR120.
In Procedure β-arrestin B the cells used were PathHunter CHO-K1 GPR120S β-Arrestin Cell Line, expressing the short form of the GPR120 receptor (Accession #NM 181745), with 5000 cells/well.
The selected CHO-K1 GPR120 β-Arrestin cells were cultured in Ham's F12 media supplemented with 10% fetal bovine serum (FBS), 1% Glutamine, 1×p/s, 800 μg/mL G418 and 300 μg/mL Hygromycin B (for selection). Cell stocks were maintained and grown in a sub-confluent state using standard cell culture procedures. The day before the experiment, the cells were harvested with non-enzymatic cell dissociation buffer and re-suspended in complete growth media at the desired concentration. A Corning 384-plate was then seeded with the proper number of cells in a volume of 25 μL, per well. The seeded plates were incubated overnight at 37° C.
On the day of the experiment, the Assay Buffer containing (a) HBSS with Ca^++ and Mg^++, (b) 20 mM HEPES, and (c) 0.1% BSA stabilizer (pH 7.4) was prepared. The growth medium was gently removed from the cell plates and 20 μL of Assay Buffer added to each well. The plate was then incubated at 37° C. for 60 min. Test compounds were serially diluted in Assay Buffer to desired concentrations (more particularly to one or more of the following μM concentrations: 25, 12.5, 6.25, 3.125, 1.5625, 0.78125, 0.390625, 0.1953125, 0.09765625, 0.048828125, 0.024414063, 0.012207031). Five μL of compound dilution was then added to each well and the plate incubated at 37° C. for 90 min. The detection reagents were prepared according to the manufacture's instruction. Twelve μL of the detection reagents were added to each well and the plate incubated at room temperature for 60 min.
The plates were read on an EnVision instrument, using Protocol name: Luminescence, Plate type: 384 Costar, Measurement height: 3 mm, Measurement time: 1 s, Aperture: 384 Plate aperture. The % activity relative to the positive control was calculated using the following equation:
The % Activity values were plotted versus the concentration of test compound and fitted to a sigmoidal dose-response curve with a Hill slope=1 (fixed value) using nonlinear regression with GraphPad Prism 5.0 to calculate the EC50 values. The Fitting Equation was: Y=Bottom+(Top-Bottom)/(1+10^((Log EC50−X)*HillSlope)), where X is the log of the concentration and Y is the response.

In a further experiment the target is T2, Human GPR120 short form (Homo sapiens, UniProt Q5NUL3).
T2 construct: expressed in transfected cells
T2 sequence (Q5NUL3 1-361): T1 sequence (Q5NUL3 1-361)
Description: Human GPR120 calcium flux assay, Procedure Calcium A. To be noted: HEK-293 cells, FLIPR, 2500 cells/well; read-out: GPR120 Ca2+ Assay A EC50. It is filed as cell-based. The protocol: These cells are first loaded with the Ca^+2 sensitive dye, Fluo-4 NR. Upon stimulation, intracellular released Ca^+2 can bind to the dye and alter its fluorescence intensity. This increase in fluorescence signal, and thus the flux in intracellular [Ca^2+], is detected and quantitated by fluorescence imaging using a FLIPR reader. The effect of the agonist is measured as a function of concentration and used to calculate an EC50 based upon a response curve.
In this procedure 2500 cells/well were employed.
A Human GPR120 clone (Genbank accession number NM_001195755.1) was placed into the pcDNA3.1 mammalian expression vector carrying the neomycin resistance gene. A stable mammalian cell was generated by placing the above clone into a HEK293 background. […] Cells were split 2 times a week to keep the cells in the log-phase growth.
In preparation for the assay, HEK cells stably transfected with Human GPR120 (2.5K cells per well in 25 uL growth medium) were seeded into 384-well plates and then incubated overnight (37° C., 5% CO2). The next day, the media was changed to 20 μL assay buffer and the cell starved for 1 h at 37° C. The dye loading solution (2× dye) was prepared using 10 mL assay buffer, 100 μL of 250 mM probenecid, 1 bottle of Component A, and 20 μl of dye in DMSO. Twenty μL of the 2× dye loading buffer was then added to each well. The plates were incubated at 37° C. for 30 min, then at room temperature for an additional 15 minutes, before performing the assay on FLIPR.
The assay was performed on a FLIPR plate reader using the following parameters. Baseline was read for 10 seconds at 1 sec intervals. The program was set to transfer 10 μL of ligand from compound plate to cell plate after baseline reading. Aspiration was executed at: 10 μL/sec speed, 4.6 μL height; Dispensing was executed at: 30 μL/sec speed, 45 μL height. After compound addition, each well was read for 300 sec, with measurements collected at 1 sec intervals.
The kinetic data from the FLIPR was based upon a 5 minute window for data collection. The fluorescence of each sample well was used for individual calculations of a normalized RFU value, which was defined as maximum response minus the minimum response. […] The Fitting Equation was: Y=Bottom+(Top-Bottom)/(1+10^((Log EC50−X)*HillSlope)), where X is the log of the concentration and Y is the response.
Background: A change in cytosolic calcium serves as a functional read-out for many receptors and channels.

Each structure is given as a SMILES string. Some results are limits rather than exact numbers.

On to `OCCCc1ccc(OCc2c(Cl)nsc2-c2ccc(Cl)cc2)c(F)c1F` [Cpd 102, 3-(4-((3-chloro-5-(4-chlorophenyl)isothiazol-4-yl)methoxy)-2,3-difluorophenyl)propan-1-ol], for which the “C57 OGTT 3 mg/kg” value with C57b16 mouse is −32.

On to `CCc1ccc(-c2nsc(C(F)(F)F)c2COc2c(F)cc(CCC(=O)O)cc2F)cc1` [Cpd 70, 3-(4-[[3-(4-ethylphenyl)-5-(trifluoromethyl)-1,2-thiazol-4-yl]methoxy]-3,5-difluorophenyl)propanoic acid], for which the “C57 IPGTT 30 mg/kg” value in the experiment with C57bl/6J Mice (30 mg/kg) is listed as −88.

`Cc1c(CCC(=O)O)ccc(OCc2c(C(C)(C)C)nsc2C(F)(F)F)c1C` [Cpd 198, 3-(4-{[3-tert-Butyl-5-(trifluoromethyl)isothiazol-4-yl]methoxy}-2,3-dimethylphenyl)propanoic acid]: the 50% effective concentration (EC50) – broadly, the concentration giving half of the maximal effect – in experiment [1] was determined as 1940 nM; at Human GPR120 short form, 405 nM.

As for `COc1ccc(-c2nsc(C(F)(F)F)c2COc2ccc(CCC(=O)O)c(C)c2C)c(F)c1` [Cpd 120, 3-(4-{[3-(2-Fluoro-4-methoxyphenyl)-5-(trifluoromethyl)isothiazol-4-yl]methoxy}-2,3-dimethylphenyl)propanoic acid], the 50% effective concentration (EC50) in experiment [1] was 310 nM; on Human GPR120 short form, 107 nM.

Take `CCc1ccc(-c2nsc(C(F)(F)F)c2COc2c(F)ccc(CC(C)CO)c2F)cc1` (centres unmarked) [Cpd 251, 3-(3-{[3-(4-Ethylphenyl)-5-(trifluoromethyl)isothiazol-4-yl]methoxy}-2,4-difluorophenyl)-2-methylpropan-1-ol]: the 50% effective concentration (EC50) on Human GPR120 short form was > 5000 nM.

On to `O=C(O)CCc1ccc(OCc2c(C(F)(F)F)nsc2-c2ccc(Cl)cc2)c(Cl)c1Cl` [Cpd 181, 3-(2,3-Dichloro-4-{[5-(4-chlorophenyl)-3-(trifluoromethyl)isothiazol-4-yl]methoxy}phenyl)propanoic acid], for which the concentration giving a half-maximal response (EC50) in experiment [1] is 819 nM; on Human GPR120 short form, 274 nM.

As to `CCc1ccc(-c2cc(C(F)(F)F)sc2COc2ccc(CCC(=O)O)c(C)c2C)cc1` [Cpd 250, 3-(4-{[3-(4-Ethylphenyl)-5-(trifluoromethyl)thiophen-2-yl]methoxy}-2,3-dimethylphenyl)propanoic acid], the EC50 on Human GPR120 short form turned out to be 3230 nM.

As to `Cc1ccc(-c2snc(Cl)c2COc2c(F)cc(CCC(=O)O)c(F)c2F)c(F)c1` [Cpd 107, 3-(4-{[3-Chloro-5-(2-fluoro-4-methylphenyl)isothiazol-4-yl]methoxy}-2,3,5-trifluorophenyl)propanoic acid], the EC50 in experiment [1] was determined as 118 nM; at Human GPR120 short form it was 89 nM.

As for `CC(C)Oc1cc(C(F)(F)F)sc1COc1c(F)cc(CCC(=O)O)cc1F` [Cpd 16, 3-(3,5-Difluoro-4-{[3-(1-methylethoxy)-5-(trifluoromethyl)thiophen-2-yl]methoxy}phenyl)propanoic acid], the EC50 in experiment [1] stood at 1510 nM; at Human GPR120 short form, 382 nM.

`O=C(O)CCc1cc(F)c(OCc2c(-c3ccc(Cl)cc3)nsc2C(F)(F)F)c(F)c1` [Cpd 79, 3-(4-[[3-(4-chlorophenyl)-5-(trifluoromethyl)-1,2-thiazol-4-yl]methoxy]-3,5-difluorophenyl)propanoic acid]: in the experiment with C57bl/6J Mice, the “C57 IPGTT 10 mg/kg” value was −60.

Take `O=C(O)CCc1ccc(OCc2c(-c3ccc(Cl)cc3)nsc2C(F)(F)F)c(F)c1F` [Cpd 106, 3-(4-[[3-(4-chlorophenyl)-5-(trifluoromethyl)-1,2-thiazol-4-yl]methoxy]-2,3-difluorophenyl)propanoic acid]: in the experiment with C57bl/6J Mice, the “C57 IPGTT 10 mg/kg” value was −34.

Take `Cc1ccc(-c2snc(C(C)C)c2COc2c(F)cc(CCC(=O)O)cc2F)c(F)c1` [Cpd 191]: the 50% effective concentration (EC50) on Human GPR120 short form was determined as 323 nM.
